According to patent US8278311B2, “Substituted pyrimidine derivatives” (Abbott Laboratories, priority 2008, dated 2012):
pKi: −log10 of the molar value.

Assays:
[1] = biological target: T1, histamine H4 receptor (Homo sapiens, UniProt Q9H3N8); assay: in vitro assay of histamine H4 activity using FLIPR-Ca+2 flux; assay type: cell-based; settings: HEK-293 cells stably expressing histamine H4 receptor and Gαqi5, Fluo-4; Kb for antagonists and inverse agonists, EC50 for partial agonists
T1 construct: expressed in transfected cells
Description: There are many methods available to show the effectiveness of compounds as histamine H4 receptor ligands. Histamine H4 receptors from mammalian species have been cloned. Methods to clone, express, and assess the potency and functional activity of such cloned genes are well known to those skilled in the art of molecular biology. Examples of methods of cloning and expressing histamine H4 receptors, and of assessing the potency and functional activity are described in Nguyen, et al. Molecular Pharmacology (2001) vol. 59 pp. 427-433; Zhu, et al. Molecular Pharmacology (2001) vol. 59 pp. 434-441; Coge, et al., Biochemical and Biophysical Research Communications (2001) vol. 284, pp. 301-309; Liu, et al. Molecular Pharmacology (2001) vol. 59 pp. 420-426; Liu, et al. Journal of Pharmacology and Experimental Therapeutics (2001) v. 299, pp. 121-130; and Thurmond, et al. Journal of Pharmacology and Experimental Therapeutics (2004) v. 309, pp. 404-413. In the present case, to determine the potency and effectiveness of representative compounds of this invention as histamine-H4 receptor ligands (H4 receptor ligands), the following tests were conducted according to previously described methods (see Esbenshade, et al., Biochemical Pharmacology (2004), vol. 68, pp. 933-945, and in Krueger, et al., Journal of Pharmacology and Experimental Therapeutics (2005) v. 314, pp. 271-281): histamine H4 receptors were cloned and stably expressed in HEK-293 (human embryonic kidney) cells coexpressing a Gαqi5. Before testing, cells are loaded with a Ca+^2 sensitive fluorescent dye, in this case Fluo-4 (Invitrogen, Carlsbad, Calif.). In the case of partial agonist or agonist ligands, addition of compound to the cells leads to the increase in intracellular Ca^+2 which is detected by FLIPR (Fluorescence Imaging Plate Reader; Molecular Devices, Sunnyvale, Calif.) technology. In a similar manner, compounds that are antagonists or inverse agonists, block the increase in fluorescence induced by the full histamine H4 agonist histamine, and partial agonists reduce the amount of fluorescence induced by the full histamine H4 agonist histamine. The fluorescence intensities measured before addition of the test compound are subtracted from the fluorescence intensities at later time points. Peak response values determined at each concentration of ligand are expressed as a percentage of the response obtained with the full agonist histamine. Concentration versus response data are analyzed to obtain compound potency as Kb values for antagonists and inverse agonists and as EC50 values for partial agonists.

[2] = biological target: T1, histamine H4 receptor; assay: 3H-histamine competition binding assay; settings: membranes of HEK-293 cells transiently transfected with histamine H4 receptor; [3H]-histamine, 25° C., 1 hour; read-out: Binding assay Potency (Ki)
Protocol: The potency of compounds of the invention in displacing ^3H-histamine in competition binding assays is assessed by methods described in Esbenshade, et al., Biochemical Pharmacology (2004), vol. 68, pp. 933-945. In this assay, membranes were prepared from HEK-293 cells transiently transfected with the pClNeo expression vector harboring the histamine H4 receptor by homogenization of the cells on ice in TE buffer (50 mM Tris-HCl buffer, pH 7.4, containing 5 mM EDTA), 1 mM benzamidine, 2 μg/mL aprotinin, 1 μg/mL leupeptin, and 1 μg/mL pepstatin. The homogenate was centrifuged at 40,000 g for 20 minutes at 4° C. This step was repeated, and the resulting pellet was resuspended in TE buffer. Aliquots were frozen at −70° C. until needed. On the day of assay, membranes were thawed and diluted with TE buffer. Competition radioligand binding assays were performed with increasing concentrations of test compound in the presence of [^3H]-histamine incubated at 25° C. for 1 hour in a total volume of 0.5 mL of 50 mM Tris, 5 mM EDTA, pH 7.4. All binding reactions were terminated by filtration under vacuum onto polyethylenimine (0.3%) presoaked Unifilters (PerkinElmer Life Sciences) or Whatman GF/B filters (Whatman, Clifton, N.J.) followed by three brief washes with 4 mL of ice-cold TE buffer. Bound radiolabel was determined by liquid scintillation counting. For all of the radioligand competition binding assays, IC50 values and Hill slopes were determined by Hill transformation of the data and Ki values were determined by the Cheng-Prusoff equation. The following table of representative histamine H4 receptor ligands is provided, along with potency values: […]

[3] = test system: carrageenan-induced thermal hyperalgesia; assay: acute model of carrageenan-induced thermal hyperalgesia (hotbox assay); assay type: in vivo; settings: assessed 30 minutes after dosing
Protocol: To assess the effectiveness of representative compounds of the invention against acute model inflammatory pain, animals were tested in an acute model of carrageenan-induced thermal hyperalgesia (see for example, Honore, et al. Behavioural Brain Research (2006) vol. 167 pp. 355-364; Porreca, et al. Journal of Pharmacology and Experimental Therapeutics (2006) vol. 318 pp. 195-205). Carrageenan was injected into the test paw of the animal, and after 90 minutes, the test drug was administered by intraperitoneal dosing; the effect on thermal hyperalgesia was assessed in a hotbox assay which was done 30 minutes after the intraperitoneal dosing of the test drug, and the MPE (maximal percent effect) reported by comparison to the control paw (not injected with carrageenan), according to 100 times the withdrawal latency of the carrageenan injected paw (in seconds) divided by the withdrawal latency of the control (not injected with carrageenan) paw. […] Representative compounds are active in this model, with preferred compounds of the invention active in the model at doses of about 100 micromoles/kg of body weight.

[4] = 100 micromole/kg injected intraperitoneally

| Potency [1] [nM] | pKi [2] | SMILES | MPE (maximal percent effect) [3, 4] [%] | MPE (maximal percent effect) ([3]; 30 micromole/kg injected intraperitoneally) [%] |
| --- | --- | --- | --- | --- |
| 4.5 | 8.52 | Nc1nc2c(c(N3CCNCC3)n1)CCC1=C2[C@H]2CCCC[C@H]2O1 (single isomer, unassigned) [Example 4, (+)-(7aR*,11aR*)-4-piperazin-1-yl-5,6,7a,8,9,10,11,11a-octahydro[1]benzofuro[2,3-h]quinazolin-2-amine] | 63 |  |
| 24.0 | 8.25 | CN[C@@H]1CCN(c2nc(N)nc3c2CCCC2C4C=CC(CC4)C32)C1 (stereo partly drawn) [Example 25, 4-[(3R)-3-(methylamino)pyrrolidin-1-yl]-6,7,7a,8,11,11a-hexahydro-5H-8,11-ethanobenzo[6,7]cyclohepta[1,2-d]pyrimidin-2-amine] |  |  |
| 21.9 | 8.26 | CN[C@@H]1CCN(c2nc(N)nc3c2CCCC2C4CCC(CC4)C32)C1 (stereo partly drawn) [Example 28, 4-[(3R)-3-(methylamino)pyrrolidin-1-yl]-6,7,7a,8,9,10,11,11a-octahydro-5H-8,11-ethanobenzo[6,7]cyclohepta[1,2-d]pyrimidin-2-amine] |  |  |

Further lines, the molecule ahead of its results:

| SMILES | Potency [1] [nM] | pKi [2] | MPE (maximal percent effect) [3, 4] [%] | MPE (maximal percent effect) ([3]; 30 micromole/kg injected intraperitoneally) [%] |
| --- | --- | --- | --- | --- |
| Nc1nc2c(c(N3CCNCC3)n1)CCC1=C2[C@@H]2CCCC[C@@H]2O1 (single isomer, unassigned) [Example 3, (−)-(7aS*,11aS*)-4-piperazin-1-yl-5,6,7a,8,9,10,11,11a-octahydro[1]benzofuro[2,3-h]quinazolin-2-amine] | 5.9 | 7.78 | 47 |  |
| Nc1nc2c(c(N3CCNCC3)n1)CCC1=C2C2CCCCC2O1 (centres unmarked) [Example 1, 4-piperazin-1-yl-5,6,7a,8,9,10,11,11a-octahydro[1]benzofuro[2,3-h]quinazolin-2-amine] | 4.7 | 8.24 | 68 | 48 |
